Tests used:
[1] = test system: foot tapping in gerbils induced by central injection of an NK1 agonist; assay: Gerbil foot-tapping assay; assay type: in vivo, Mongolian gerbils; details: i.v.
From the text: CNS penetrant NK-1 receptor antagonists for use in the present invention can be identified by their ability to inhibit foot tapping in gerbils induced by anxiogenic agents (such as pentagastrin) or central infusion of NK-1 receptor agonists such as GR73632, or caused by aversive stimulation such as foot shock or single housing, based on the method of Rupniak & Williams, Eur. J. Pharmacol., 1994, 265, 179.
Male or female Mongolian gerbils (35-70g) are anaesthetised by inhalation of an isoflurane/oxygen mixture to permit exposure of the jugular vein in order to permit administration of test compounds or vehicle in an injection volume of 5 ml/kg i.v. Alternatively, test compounds may be administered orally or by subcutaneous or intraperitoneal routes. The wound is closed and a second skin incision is made in the midline of the scalp to expose the skull. An anxiogenic agent (e.g. pentagastrin) or a selective NK-1 receptor agonist (e.g. GR73632 (d Ala[L-Pro^9,Me-Leu^10]-substance P-(7-11))) is infused directly into the cerebral ventricles (e.g. 3 pmol in 5 μl i.c.v. depending upon the agent) by vertical insertion of a cuffed 27 gauge needle to a depth of 4.5 mm below bregma. […] The duration and/or intensity of hind foot tapping is then recorded continuously for 5 minutes.

[2] = test system: distress vocalisations in guinea-pig pups; assay: Separation-induced vocalisation assay; assay type: in vivo, guinea-pigs; details: p.o.
Procedure: On test days each pup receives an oral dose or a s.c. or i.p. injection of test compound or vehicle and is then immediately returned to the home cage with its mother and siblings for 30 minutes to 60 minutes (or for up to 4 hours following an oral dose, dependant upon the oral pharmacokinetics of the test compound) before social isolation for 15 minutes as described above. […] Between 6 and 8 animals receive each test compound at each dose tested.

Which results are given for C[C@@H](O[C@H]1OCCN(Cc2n[nH]c(=O)[nH]2)[C@H]1c1ccc(F)cc1)c1cc(C(F)(F)F)cc(C(F)(F)F)c1 [2-(R)-(1-(R)-(3,5-bis(trifiuoromethyl)phenyl)-ethoxy)-3-(S)-(4-fluorophenyl)-4-(3-(5-oxo-1H,4H-1,2,4-triazolo)methyl)-morpholine]?
gerbil foot-tapping (5 mins.): ID50 ([1]; 5 mins.): ID50 = 0.36 mg/kg i.v.; gerbil foot-tapping (24 hrs.): ID50 ([1]; 24 hrs. prior to challenge): ID50 = 0.33 mg/kg i.v.; guinea-pig vocalisation (4 hr. pre-treatment): ID50 [2]: ID50 = 0.73 mg/kg p.o.
